One block for each molecule: values may come before it.
How the values were obtained:
[1] = Drug excretion in Wistar rat urine at 750 mg/kg, po after 12 hrs by HPLC-UV analysis; type: ADME, organism-based; set-up: dose 750 mg/kg, route oral; conditions: in vivo
[2] = Drug excretion in Wistar rat feces at 750 mg/kg, po after 12 hrs by HPLC-UV analysis; type: ADME, organism-based; set-up: dose 750 mg/kg, route oral; conditions: in vivo
[3] = Drug metabolism in Wistar rat urine/feces treated with 750 mg/kg, po of 3,5,7,4'-tetramethoxyflavone by LC-MS and LC-MS/MS analysis; type: ADME, organism-based; set-up: dose 750 mg/kg, route oral; conditions: in vivo
[4] = Drug metabolism in Wistar rat assessed as excretion of 3,5-dihydroxy-7-methoxy-2-(4-methoxyphenyl)-4H-chromen-4-one in urine/feces at 750 mg/kg, po by LC-MS and LC-MS/MS analysis; type: ADME, organism-based; set-up: dose 750 mg/kg, route oral; conditions: in vivo
[5] = Drug metabolism in Wistar rat assessed as excretion of 3,5-dihydroxy-2-(4-hydroxyphenyl)-7-methoxy-4H-chromen-4-one in feces at 750 mg/kg, po by LC-MS and LC-MS/MS analysis; type: ADME, organism-based; set-up: dose 750 mg/kg, route oral; conditions: in vivo
[6] = tested on: Rattus norvegicus; test: Volume of distribution in Wistar rat at 250 mg/kg, po by HPLC analysis; type: ADME, organism-based; set-up: dose 250 mg/kg, route oral; conditions: in vivo
[7] = Oral bioavailability in Wistar rat at 250 mg/kg by HPLC analysis; type: ADME, organism-based; conditions: in vivo
[8] = Cmax in Wistar rat at 250 mg/kg, po by HPLC analysis; type: ADME, organism-based; set-up: dose 250 mg/kg, route oral; conditions: in vivo
[9] = Drug excretion in Wistar rat feces at 750 mg/kg, po after up to 72 hrs by HPLC-UV analysis; type: ADME, organism-based; set-up: dose 750 mg/kg, route oral; conditions: faeces, read-out: Drug excretion
[10] = Tmax in Wistar rat brain at 750 mg/kg, po by LC-MS/MS analysis; type: ADME, organism-based; set-up: dose 750 mg/kg, route oral
[11] = Cmax in Wistar rat kidney at 750 mg/kg, po by LC-MS/MS analysis; type: ADME, organism-based; set-up: dose 750 mg/kg, route oral
[12] = AUC (0.083 to 4 hrs) in Wistar rat testes at 750 mg/kg, po by LC-MS/MS analysis; type: ADME, organism-based, Testis; set-up: time 0.083-4 hr, dose 750 mg/kg, route oral; conditions: in vivo
[13] = Tmax in Wistar rat lung at 750 mg/kg, po by LC-MS/MS analysis; type: ADME, organism-based; set-up: dose 750 mg/kg, route oral
[14] = tested on: Rattus norvegicus; test: Absorption rate constant in Wistar rat at 250 mg/kg, po by HPLC analysis; type: ADME, organism-based; set-up: dose 250 mg/kg, route oral; conditions: in vivo
[15] = Drug excretion in Wistar rat urine at 750 mg/kg, po after 24 to 72 hrs by HPLC-UV analysis; type: ADME, organism-based; set-up: dose 750 mg/kg, route oral; conditions: in vivo
[16] = Elimination rate constant in Wistar rat at 250 mg/kg, po by HPLC analysis; type: ADME, organism-based; set-up: dose 250 mg/kg, route oral; conditions: in vivo, read-out: Ke (converted)
[17] = Drug metabolism in Wistar rat assessed as excretion of 5-hydroxy-2-(4-methoxyphenyl)-4-oxo-4H-chromen-7-yl hydrogen sulfate in urine at 750 mg/kg, po by LC-MS and LC-MS/MS analysis; type: ADME, organism-based; set-up: dose 750 mg/kg, route oral; conditions: in vivo
[18] = Tmax in Wistar rat liver at 750 mg/kg, po by LC-MS/MS analysis; type: ADME, organism-based; set-up: dose 750 mg/kg, route oral
[19] = Cmax in Wistar rat lung at 750 mg/kg, po by LC-MS/MS analysis; type: ADME, organism-based; set-up: dose 750 mg/kg, route oral
[20] = Drug metabolism in Wistar rat assessed as excretion of 5-hydroxy-2-(4-hydroxyphenyl)-7-methoxy-4H-chromen-4-one in urine/feces at 750 mg/kg, po by LC-MS and LC-MS/MS analysis; type: ADME, organism-based; set-up: dose 750 mg/kg, route oral; conditions: in vivo
[21] = Drug metabolism in Wistar rat assessed as excretion of 7-methoxy-2-(4-methoxyphenyl)-4-oxo-4H-chromen-5-yl hydrogen sulfate in urine at 750 mg/kg, po by LC-MS and LC-MS/MS analysis; type: ADME, organism-based; set-up: dose 750 mg/kg, route oral; conditions: in vivo
[22] = Cmax in Wistar rat brain at 750 mg/kg, po by LC-MS/MS analysis; type: ADME, organism-based; set-up: dose 750 mg/kg, route oral
[23] = tested on: Brain; test: AUC (0.083 to 4 hrs) in Wistar rat brain at 750 mg/kg, po by LC-MS/MS analysis; type: ADME, organism-based; set-up: time 0.083-4 hr, dose 750 mg/kg, route oral; conditions: in vivo
[24] = tested on: Lung; test: AUC (0.083 to 4 hrs) in Wistar rat lung at 750 mg/kg, po by LC-MS/MS analysis; type: ADME, organism-based; set-up: time upper 4 hr, time lower 0.083 hr, dose 750 mg/kg, route oral; conditions: in vivo
[25] = Clearance in Wistar rat at 250 mg/kg, po by HPLC analysis; type: ADME, organism-based; set-up: dose 250 mg/kg, route oral; conditions: in vivo
[26] = Elimination rate constant in Wistar rat at 250 mg/kg, iv by HPLC analysis; type: ADME, organism-based; set-up: dose 250 mg/kg, route intravenous; conditions: Wistar, in vivo, read-out: Ke (converted)
[27] = Clearance in Wistar rat at 250 mg/kg, iv by HPLC analysis; type: ADME, organism-based; set-up: dose 250 mg/kg, route intravenous; conditions: in vivo
[28] = Tmax in Wistar rat kidney at 750 mg/kg, po by LC-MS/MS analysis; type: ADME, organism-based; set-up: dose 750 mg/kg, route oral
[29] = tested on: Kidney; test: AUC (0.083 to 4 hrs) in Wistar rat kidney at 750 mg/kg, po by LC-MS/MS analysis; type: ADME, organism-based; set-up: time 0.083-4 hr, dose 750 mg/kg, route oral; conditions: in vivo
[30] = Tmax in Wistar rat at 250 mg/kg, po by HPLC analysis; type: ADME, organism-based; set-up: dose 250 mg/kg, route oral; conditions: in vivo
[31] = Half life in Wistar rat at 250 mg/kg, iv by HPLC analysis; type: ADME, organism-based; set-up: dose 250 mg/kg, route intravenous; conditions: Wistar, in vivo
[32] = Drug excretion in Wistar rat feces at 750 mg/kg, po after 18 to 24 hrs by HPLC-UV analysis; type: ADME, organism-based; set-up: dose 750 mg/kg, route oral; conditions: in vivo
[33] = Half life in Wistar rat at 250 mg/kg, po by HPLC analysis; type: ADME, organism-based; set-up: dose 250 mg/kg, route oral; conditions: in vivo
[34] = Tmax in Wistar rat testes at 750 mg/kg, po by LC-MS/MS analysis; type: ADME, organism-based, Testis; set-up: dose 750 mg/kg, route oral
[35] = Drug excretion in Wistar rat urine at 750 mg/kg, po after up to 72 hrs by HPLC-UV analysis; type: ADME, organism-based; set-up: dose 750 mg/kg, route oral; conditions: read-out: Drug excretion
[36] = Cmax in Wistar rat testes at 750 mg/kg, po by LC-MS/MS analysis; type: ADME, organism-based, Testis; set-up: dose 750 mg/kg, route oral
[37] = AUC in Wistar rat at 250 mg/kg, iv by HPLC analysis; type: ADME, organism-based; set-up: dose 250 mg/kg, route intravenous; conditions: plasma
[38] = Cmax in Wistar rat liver at 750 mg/kg, po by LC-MS/MS analysis; type: ADME, organism-based; set-up: dose 750 mg/kg, route oral
[39] = tested on: Liver; test: AUC (0.083 to 4 hrs) in Wistar rat liver at 750 mg/kg, po by LC-MS/MS analysis; type: ADME, organism-based; set-up: time 0.083-4 hr, dose 750 mg/kg, route oral; conditions: in vivo
[40] = AUC in Wistar rat at 250 mg/kg, po by HPLC analysis; type: ADME, organism-based; set-up: dose 250 mg/kg, route oral; conditions: plasma

Drug excretion [1]: Active
Drug excretion [2]: Active
Compound: COc1cc(O)c2c(=O)c(OC)c(-c3ccc(OC)c(OC)c3)oc2c1 [RETUSIN]

Drug metabolism [3]: metabolite_detected
Compound: COc1cc(O)c2c(=O)c(O)c(-c3ccc(O)cc3)oc2c1 [RHAMNOCITRIN]

Drug excretion [1]: Active
Drug excretion [2]: Active
Compound: COc1cc(O)c2c(=O)cc(-c3ccccc3)oc2c1 [TECHTOCHRYSIN]

Compound: COc1ccc(-c2oc3cc(OC)cc(OC)c3c(=O)c2OC)cc1 [TETRAMETHYLKAEMPFEROL]
Drug metabolism [4]: metabolite_detected
Drug metabolism [5]: metabolite_detected

Vd [6]: 2385.1 mL
bioavailability [7]: 1.75%
Cmax [8]: 880 ng/mL
dose excreted at 72 h [9]: 1.76%
Tmax [10]: 3.43 h
Cmax [11]: 1640 ng/g
AUC [12]: 1.96 µg·h/g
Tmax [13]: 1.76 h
ka [14]: 8.53 h⁻¹
Drug excretion [15]: Active
k el [16]: 4.17e-05 s⁻¹
Drug excretion [1]: Active
Drug metabolism [17]: metabolite_detected
Tmax [18]: 2.64 h
Cmax [19]: 1410 ng/g
Drug metabolism [20]: metabolite_detected
Drug metabolism [21]: metabolite_detected
Cmax [22]: 1430 ng/g
AUC [23]: 2.5 µg·h/g
Drug excretion [2]: Active
AUC [24]: 1.88 µg·h/g
CL/F [25]: 5.62 mL/min
k el [26]: 8.89e-05 s⁻¹
clearance [27]: 0.105 mL/min
Tmax [28]: 3.43 h
AUC [29]: 3.01 µg·h/g
Tmax [30]: 0.85 h
half-life [31]: 4.19 h
Drug excretion [32]: Active
half-life [33]: 5.04 h
Tmax [34]: 3.14 h
dose excreted at 72 h [35]: 1.77%
Cmax [36]: 1100 ng/g
AUC [37]: 276 µg·h/mL
Cmax [38]: 3010 ng/g
AUC [39]: 7.83 µg·h/g
AUC [40]: 6.96 µg·h/mL
Compound: COc1ccc(-c2cc(=O)c3c(OC)cc(OC)cc3o2)cc1 [TRIMETHYLAPIGENIN]
